Results on seven compounds are retold here after paper PMC5343011, “Phenol-Soluble Modulin α Peptide Toxins from Aggressive Staphylococcus aureus Induce Rapid Formation of Neutrophil Extracellular Traps through a Reactive Oxygen Species-Independent Pathway” (Frontiers in Immunology, 2017).

The subject of data set [1] is neutrophils. The data set can be described thus: Plasma membrane disruption by lactate dehydrogenase (LDH) release. It counts as cell-based, human. The conditions noted are these: 10 min, 37°C, relative to Triton X-100-treated samples, two independent experiments in triplicates. The procedure: Neutrophils (2 × 10^6 cells/ml) were incubated with PSMα2 or hexadecyltrimethylammonium bromide (CTAB, Sigma) for 10 min at 37°C. LDH was measured in the supernatants with cytotoxicity detection kit (LDH, Roche) as described in Ref. ([25]).

Data set [2] concerns neutrophils. The data set can be described thus: Sytox Green DNA release / NET formation. It counts as cell-based, human. The procedure: Peripheral blood neutrophils were isolated from 1-day-old buffy coats from healthy blood donors or from peripheral blood from patients and healthy controls. Neutrophil separation was performed as first described by Boyum ([23]). Briefly, after dextran, sedimentation at 1 × g the suspension was centrifuged on Ficoll-Paque, and the remaining erythrocytes were lysed by hypotonic treatment. The neutrophils were then washed in Krebs Ringer phosphate buffer (KRG) and finally resuspended in KRG supplemented with Ca^2+ (1 mM) and kept on melting ice until used. Buffy coats were obtained from the Sahlgrenska University Hospital blood bank after deidentification, and according to the Swedish legislation section code 4§ 3 p SFS2003:460, no informed consent is needed. Peripheral blood from one MPO-deficient individual, one patient with Papillon-Lefèvre syndrome, and healthy controls were obtained after written informed consent, and the study was approved by the Regional Ethical Review Board in Gothenburg, Sweden.
Cells (5 × 10^4 cells/well) in RPMI (without phenol red) and the Sytox Green DNA stain (1.25 μM; Molecular Probes) were added to black 96-well plates and incubated at 37°C and 5% CO2 ([5]). Inhibitors, PBP10 (CASLO Laboratory) or diphenyleneiodonium chloride (DPI; Sigma-Aldrich), were preincubated with cells for 10 min at 37°C and 5% CO2 prior to stimulation. Sytox Green fluorescence was measured at indicated time points at 485/535 nm in a Mithras LB940 (Berthold Technologies) or in a CLARIOstar plate reader (BMG Labtech).

Data set [3] concerns Formyl peptide receptor (FPR) 1 / FPR2. The conditions noted are these: receptor through which the peptide activates neutrophils; dash = inactive; cited from earlier work. The source says:
Table 1 Peptide sequences and receptor preferences of PSMα2. | column: Receptor preference^a

In data set [4] the test system is neutrophils. The data set can be described thus: Nuclear membrane integrity (SUN2 staining, confocal microscopy). It counts as cell-based, human. The conditions noted are these: SUN2 and DNA staining, three independent experiments. The procedure: Neutrophils or human A375 melanoma cells (2.5 × 10^5 cells/well) were suspended in RPMI and added to poly-lysine-coated coverslips. After stimulation with PMA (50 nM; Sigma-Aldrich) or PSMα (indicated concentrations), the cells were incubated at 37°C in the presence of 5% CO2 or at 4°C for indicated time. To visualize NETs, samples were fixed in 4% paraformaldehyde for 30 min at room temperature and stained with antibodies against MPO (DAKO), NE (Calbiochem), or Histone-1 (Acris) followed by secondary antibody staining. Finally, the coverslips were incubated with DAPI (1 μg/ml) for 5 min and then mounted in ProLong Gold antifade (Molecular Probes). For nuclear morphology experiments, neutrophils were incubated with PSMα2 for 10 min or with PMA for 30 min or 2 h, the cells were fixed on ice with 4% paraformaldehyde, permeabilized with cold acetone and methanol (1:1) for 5 min, and stained with SUN2 antibody (Abcam) followed by secondary antibody staining. To visualize microbes in the NETs, we used green fluorescent protein (GFP)-expressing Candida albicans, strain CAI4 containing a C. albicans-specific pENO1-GFP-CyC1t plasmid ([26]), or S. aureus, strain RN4220 containing the pCN-GFP plasmid that was a kind gift from Dr. Maria Lerm (Linköping University, Sweden). […]

Data set [5] has as its system A375 melanoma cells. Description: Microscopic visualization of melanoma cells (DAPI). The conditions noted are these: PSMα2 or PSMα3 2.5 μM for 1 h, PMA 50 nM for 3 h, three independent experiments. It counts as cell-based, human. On the procedure: The human melanoma cell line A375 was a kind gift from Professor Jonas A. Nilsson (Sahlgrenska Cancer Center, University of Gothenburg, Sweden). The cells were cultured in DMEM with 10% FCS, 100 U/ml penicillin, and 100 μg/ml streptomycin at 37°C and 5% CO2. Before being used experimentally, the cells were detached from the flasks’ surface by incubation with 0.25% trypsin in 37°C for 10 min followed by washing and resuspension in RPMI culture media.
Neutrophils or human A375 melanoma cells (2.5 × 10^5 cells/well) were suspended in RPMI and added to poly-lysine-coated coverslips. After stimulation with PMA (50 nM; Sigma-Aldrich) or PSMα (indicated concentrations), the cells were incubated at 37°C in the presence of 5% CO2 or at 4°C for indicated time. To visualize NETs, samples were fixed in 4% paraformaldehyde for 30 min at room temperature and stained with antibodies against MPO (DAKO), NE (Calbiochem), or Histone-1 (Acris) followed by secondary antibody staining. Finally, the coverslips were incubated with DAPI (1 μg/ml) for 5 min and then mounted in ProLong Gold antifade (Molecular Probes). […]

In data set [6] the test system is neutrophils. The conditions noted are these: cited from earlier work. The source says: Further, we have shown that enzymatic conversion of ROS by MPO inside granules is a prerequisite for PMA-induced NET formation ([10]). We thus investigated whether MPO was required for PSMα-induced NET formation by using neutrophils from a completely MPO-deficient donor [previously described in Ref. ([10])] that was sampled at two occasions (with nearly identical results). Neutrophils fro ...

As to `CCCCCCCCCCCCCCCC[N+](C)(C)C` [CTAB, hexadecyltrimethylammonium bromide], the LDH release entry in data set [1] is reported as “close to maximal”. In addition, the “NET formation (Sytox Green fluorescence) after detergent treatment” value in data set [2] (10 min, two independent experiments in triplicates) is reported as “did not cause NET formation”. On to “f-MGIIAGIIKF [1–10, shorter PSMα2 variant, amino acids 1–10]”, for which the Receptor preference result in data set [3] is “FPR1”.

With `c1ccc2c(c1)[I+]c1ccccc1-2` [DPI, diphenyleneiodonium chloride], the “Effect of NADPH oxidase inhibitor on PMA-induced NET formation” value in data set [2] (PMA 50 nM, DPI 10 μM, three independent experiments) was “potently inhibited”. Further, in data set [2] (PSMα2 2.5 μM, DPI 10 μM, three independent experiments), the “Effect of NADPH oxidase inhibitor on PSMα-induced NETs” value is recorded as “without effect”. As for “f-MGIIA [1–5, shorter PSMα2 variant, amino acids 1–5]”, in data set [3], the Receptor preference result was “Formyl peptide receptor (FPR) 1”. Take “f-MGIIAGIIKFIK [1–12, shorter PSMα2 variant, amino acids 1–12]”: the Receptor preference entry in data set [3] is “FPR1/FPR2”.

Consider “f-MGIIAGIIKFIKGLIE [1–16, shorter PSMα2 variant, amino acids 1–16]”, for which the Receptor preference entry in data set [3] was “FPR2”. As to `CCCCCCCCCCCCCC(=O)O[C@@H]1[C@@H](C)[C@@]2(O)[C@@H](C=C(CO)C[C@]3(O)C(=O)C(C)=C[C@@H]23)[C@@H]2C(C)(C)[C@]12OC(C)=O` [PMA, phorbol myristate acetate], the “Stimulation time at which disruption of nuclear membranes was first observed” value in data set [4] stood at 2 h. The “Extracellular DNA release from melanoma cells” value in data set [5] is on record as “did not induce any DNA expulsion”. Also, the “Time to increase in Sytox green fluorescence” value in data set [2] (PMA 50 nM, 37°C, three independent experiments) stood at 3 h. Besides, the “NET formation by neutrophils from a completely MPO-deficient donor in response to PMA” value in data set [6] is “unable to form NETs”.
